Laboratory results as given in ChEMBL document CHEMBL4138231 (Eur J Med Chem, 2018).
The source made the active and inactive calls. The rule behind the calls is not given here.

Key:
K562 = test: Antiproliferative activity against human K562 cells after 72 hrs by CCK8 assay; format: functional
[1] = molecular target: Serine/threonine-protein kinase PLK2 (Homo sapiens, UniProt Q9NYY3); test: Inhibition human recombinant full length GST-tagged Plk2 expressed in baculovirus expression system after 1 hr by FRET-based Z'-Lyte assay
MCF7 = test: Antiproliferative activity against human MCF7 cells after 72 hrs by CCK8 assay; format: functional
Huh-7 = test: Antiproliferative activity against human HuH7 cells after 72 hrs by CCK8 assay; format: functional
A549 = test: Antiproliferative activity against human A549 cells after 72 hrs by CCK8 assay; format: functional
NCI-H1975 = test: Antiproliferative activity against human NCI-H1975 cells after 72 hrs by CCK8 assay; format: functional
HeLa = test: Antiproliferative activity against human HeLa cells after 72 hrs by CCK8 assay; format: functional

Sequence of Serine/threonine-protein kinase PLK2 (Q9NYY3 whole entry): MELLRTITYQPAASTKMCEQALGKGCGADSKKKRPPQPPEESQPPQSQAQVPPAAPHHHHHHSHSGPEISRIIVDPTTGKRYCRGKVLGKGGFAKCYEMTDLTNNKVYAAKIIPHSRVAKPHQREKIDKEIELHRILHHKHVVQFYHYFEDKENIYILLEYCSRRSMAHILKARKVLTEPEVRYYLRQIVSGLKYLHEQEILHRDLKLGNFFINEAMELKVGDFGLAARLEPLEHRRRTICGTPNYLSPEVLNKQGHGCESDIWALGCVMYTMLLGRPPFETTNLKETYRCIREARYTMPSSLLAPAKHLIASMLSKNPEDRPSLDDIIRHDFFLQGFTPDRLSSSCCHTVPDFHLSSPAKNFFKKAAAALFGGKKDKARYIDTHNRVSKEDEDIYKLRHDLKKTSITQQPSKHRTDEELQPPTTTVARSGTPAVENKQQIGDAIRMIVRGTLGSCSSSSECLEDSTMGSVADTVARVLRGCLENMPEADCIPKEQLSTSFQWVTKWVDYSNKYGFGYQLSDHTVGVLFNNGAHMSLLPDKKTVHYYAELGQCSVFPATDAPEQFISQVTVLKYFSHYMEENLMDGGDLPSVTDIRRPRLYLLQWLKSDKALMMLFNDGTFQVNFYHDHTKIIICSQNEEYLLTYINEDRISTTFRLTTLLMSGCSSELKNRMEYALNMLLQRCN

Row | GI50 (K562; K562, 72 h) [nM] | IC50 [1] [nM] | GI50 (MCF7; MCF7, 72 h) [nM] | GI50 (Huh-7; Huh-7, 72 h) [nM] | GI50 (A549; A549, 72 h) [nM] | GI50 (NCI-H1975; NCI-H1975, 72 h) [nM] | GI50 (HeLa) | GI50 (K562) | GI50 (MCF7) | GI50 (Huh-7) | GI50 (A549) | GI50 (NCI-H1975) | Structure (SMILES)
1 | 2260 | 190 | 3000 | 8880 | 15000 | 21700 | 2670 nM |  |  |  |  |  | CCCNS(=O)(=O)c1ccc(Nc2ncc3c(n2)N(c2ccn(C)n2)C(CC)C(=O)N3C)cc1 (racemic)
2 | 705 | 8.6 | 1000 | 842 | 2200 | 1370 | 768 nM |  |  |  |  |  | CC[C@@H]1C(=O)N(C)c2cnc(-n3ccc4cc(C(=O)NC)ccc43)nc2N1C1CCCC1
3 | 705 | 21.8 | 403 | 411 | 750 | 1040 | 561 nM |  |  |  |  |  | CC[C@@H]1C(=O)N(C)c2cnc(Nc3ccc(S(=O)(=O)NCC(C)C)cc3)nc2N1C1CCCC1
4 | 222 | 3.4 | 151 | 99 | 183 | 1410 | 148 nM |  |  |  |  |  | CC[C@@H]1C(=O)N(C)c2cnc(Nc3ccc(S(=O)(=O)NC)cc3)nc2N1C1CCCC1
5 |  | 478 |  |  |  |  | inactive | inactive | inactive | inactive | inactive | inactive | CCC1C(=O)N(C)c2cnc(Nc3ccc(S(=O)(=O)NCCO)cc3)nc2N1c1ccn(C)n1 (racemic)
6 | 412 | 19.9 | 459 | 225 | 477 | 1610 | 451 nM |  |  |  |  |  | CCCCNS(=O)(=O)c1ccc(Nc2ncc3c(n2)N(C2CCCC2)[C@H](CC)C(=O)N3C)cc1
7 | 395 | 11.3 | 592 | 689 | 1640 | 786 | 238 nM |  |  |  |  |  | CCCNC(=O)c1ccc2c(ccn2-c2ncc3c(n2)N(C2CCCC2)[C@H](CC)C(=O)N3C)c1
8 | 4180 | 54.4 | 5430 | 2790 | 4150 | 6000 | 5140 nM |  |  |  |  |  | CC[C@@H]1C(=O)N(C)c2cnc(Nc3ccc(S(=O)(=O)Nc4ccccc4)cc3)nc2N1C1CCCC1
9 | 1850 | 28.5 | 1830 | 3090 | 4350 | 3380 | 674 nM |  |  |  |  |  | CC[C@@H]1C(=O)N(C)c2cnc(-n3ccc4cc(C(N)=O)ccc43)nc2N1C1CCCC1
10 | 786 | 17.4 | 1670 | 1660 | 1780 | 1840 | 292 nM |  |  |  |  |  | CC[C@@H]1C(=O)N(C)c2cnc(-n3ccc4cc(C(=O)NC(C)C)ccc43)nc2N1C1CCCC1
11 | 31300 | 90.9 |  |  | 39500 |  | 27400 nM |  | inactive | inactive |  | inactive | CCC1C(=O)N(C)c2cnc(-n3ccc4cc(C(=O)NC5CCCC5)ccc43)nc2N1c1ccn(C)n1 (racemic)
12 | 546 | 7.86 | 344 | 278 | 563 | 2100 | 459 nM |  |  |  |  |  | CC[C@@H]1C(=O)N(C)c2cnc(Nc3ccc(S(=O)(=O)NCCO)cc3)nc2N1C1CCCC1
13 | 638 | 18.6 | 953 |  | 1730 |  | 3280 nM |  |  | inactive |  | inactive | CC[C@@H]1C(=O)N(C)c2cnc(-n3ccc4cc(C(=O)NCC(C)C)ccc43)nc2N1C1CCCC1
14 | 872 | 23.9 | 688 | 389 | 1150 | 1710 | 609 nM |  |  |  |  |  | CC[C@@H]1C(=O)N(C)c2cnc(Nc3ccc(S(=O)(=O)NC4CCCC4)cc3)nc2N1C1CCCC1
15 | 68 |  | 67 | 28 | 57 | 230 | 34 nM |  |  |  |  |  | CC[C@@H]1C(=O)N(C)c2cnc(Nc3ccc(C(=O)NC4CCN(C)CC4)cc3OC)nc2N1C1CCCC1 [BI-2536]
